In PubChem BioAssay (NCI):
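Values below derive from 48-hour exposures of cells grown in 96-well plates, with endpoints linearly interpolated between the two concentrations bracketing the appropriate inhibition level. Here, GI50 denotes the concentration required for 50% inhibition of growth. The concentration for full growth arrest is given as TGI.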 Where a SMILES comes first, the peptide text is derived from it. [ ]: non-standard residue; d: D form. The star is where a group is joined. ξ: configuration not given here. 4Abz = Nc1ccc(C(=O)O)cc1; ξL = CC(C)CC(N)C(=O)O; NHOH = ON*

Assays:
Experiment in all cases: NCI-60 cell line screen, 48 h
RPMI-8226 leukemia = tested on: RPMI-8226 leukemia
NCI-H522 lung = tested on: NCI-H522 lung
SF-295 CNS = tested on: SF-295 CNS
MALME-3M melanoma = tested on: MALME-3M melanoma
NCI-H460 lung = tested on: NCI-H460 lung
U251 CNS = tested on: U251 CNS
MDA-MB-231 breast = tested on: MDA-MB-231 breast
NCI-H23 lung = tested on: NCI-H23 lung
786-0 renal = tested on: 786-0 renal
RXF 393 renal = tested on: RXF 393 renal

| Structure (SMILES) | GI50 (RPMI-8226 leukemia) | TGI (RPMI-8226 leukemia) | GI50 (NCI-H522 lung) | TGI (NCI-H522 lung) | GI50 (SF-295 CNS) | TGI (SF-295 CNS) | GI50 (MALME-3M melanoma) | TGI (MALME-3M melanoma) | GI50 (NCI-H460 lung) | TGI (NCI-H460 lung) | GI50 (U251 CNS) | TGI (U251 CNS) | GI50 (MDA-MB-231 breast) | TGI (MDA-MB-231 breast) | GI50 (NCI-H23 lung) | TGI (NCI-H23 lung) | GI50 (786-0 renal) | TGI (786-0 renal) | GI50 (RXF 393 renal) | TGI (RXF 393 renal) |
| --- | --- | --- | --- | --- | --- | --- | --- | --- | --- | --- | --- | --- | --- | --- | --- | --- | --- | --- | --- | --- |
| C=CC[n+]1c(/C=C2\Sc3ccccc3N2C)sc(-c2ccccc2)c1-c1ccccc1 | 0.25 µM | 0.987 µM | 0.22 µM | 0.76 µM | 0.276 µM | 0.903 µM | 0.253 µM | 0.672 µM | 0.284 µM | 11.4 µM | 0.315 µM | 12.4 µM | 0.287 µM | 2.99 µM | 0.289 µM | 10.9 µM | 0.419 µM | 11.1 µM | 0.519 µM | 8.94 µM |
| CC(C)CC(NC(=O)[C@@H]1CCCN1C(=O)CNC(=O)c1ccc(N)cc1)C(=O)N[C@H](C)C(=O)NO (stereo partly drawn) (H-[4Abz]GP[ξL][dA]-{NHOH}) | – | – | > 100 µM | > 100 µM | > 100 µM | > 100 µM | > 100 µM | > 100 µM | > 100 µM | > 100 µM | > 100 µM | > 100 µM | > 100 µM | > 100 µM | > 100 µM | > 100 µM | > 100 µM | > 100 µM | > 100 µM | > 100 µM |
| O=C(NCCc1ccccc1)C(c1csc2ccccc12)N(C(=O)CCl)c1ccc(-c2cnco2)cc1 (stereo not drawn) | 0.171 µM | 0.474 µM | 0.0134 µM | 0.0295 µM | 0.156 µM | 0.302 µM | 0.146 µM | 0.308 µM | 0.631 µM | – | 0.163 µM | 0.644 µM | 0.226 µM | 1.36 µM | 0.0209 µM | 0.0508 µM | 0.0197 µM | 0.038 µM | 0.145 µM | 0.587 µM |
| O=C(CCCCCn1c2ccccc2c2c3c(c4c5ccccc5[nH]c4c21)C(=O)N(O)C3=O)N1CCOCC1 | 1.97 µM | 5.43 µM | 1.38 µM | 3.14 µM | – | – | 2.26 µM | 6.34 µM | 2.16 µM | 4.69 µM | 2.26 µM | 5.59 µM | 2.16 µM | 5.87 µM | 2.11 µM | 5.47 µM | 1.99 µM | 4.91 µM | 1.81 µM | 3.37 µM |
| Cc1c(Br)cccc1NC(=O)c1sc2nc3c(cc2c1N)CN(Cc1ccccc1)CC3 | – | – | 0.108 µM | > 50 µM | 0.129 µM | 9.42 µM | 0.256 µM | 6.04 µM | 0.191 µM | 5.02 µM | 0.242 µM | 5.58 µM | 0.531 µM | 38.1 µM | 0.343 µM | > 50 µM | 0.256 µM | 7.98 µM | 0.123 µM | 0.402 µM |
| CCCCCCCC(=O)SCC/C=C/[C@@H]1CC(=O)NCc2cccc(n2)CN(Cc2ccc(Cl)cc2)CC(=O)N[C@@H](C(C)C)C(=O)O1 | 46.4 µM | > 100 µM | 6.82 µM | 54.1 µM | 4.45 µM | 20.3 µM | 3.12 µM | > 100 µM | 5.45 µM | > 100 µM | 12.6 µM | 35.8 µM | 11.7 µM | 68.8 µM | 13.7 µM | > 100 µM | 22 µM | > 100 µM | 5.9 µM | 44 µM |
| COc1ccc2c(c1)Cc1cc(N=[N+]([O-])c3ccc4c(c3)Cc3cc(OC)ccc3-4)ccc1-2 | – | – | – | 30.3 µM | – | > 100 µM | – | > 100 µM | – | > 100 µM | – | 30.8 µM | – | > 100 µM | – | > 100 µM | – | > 100 µM | – | > 100 µM |
| Nc1nc(Cl)cc2c1ncn2C1OC(CO)C(O)C1O (stereo not drawn) | > 100 µM | > 100 µM | > 100 µM | > 100 µM | – | – | > 100 µM | > 100 µM | > 100 µM | > 100 µM | > 100 µM | > 100 µM | 52.3 µM | > 100 µM | > 100 µM | > 100 µM | > 100 µM | > 100 µM | > 100 µM | > 100 µM |
| COC(=O)C1=C(O)C(C(=O)OC)[C@@]2(O)[C@@H](C(=O)OC)C(c3ccc(OC(=O)C(Cc4ccccc4)NC(C)=O)cc3)C[C@@H]1[C@@H]2C(=O)OC (stereo partly drawn) | 20.6 µM | 71.4 µM | 28.3 µM | > 100 µM | 32.8 µM | 69.3 µM | – | – | 20.5 µM | > 100 µM | 15.9 µM | 32.8 µM | 21 µM | 58.8 µM | 19.9 µM | 48.1 µM | 18.3 µM | 43.5 µM | 25.4 µM | 51.2 µM |
| COC(=O)c1ccc2c(c1)[n+](=O)c(C(C)=O)c(C(F)(F)F)n2[O-] | 2.23 µM | 6.34 µM | 1.66 µM | 3.28 µM | 1.33 µM | 2.78 µM | 1.96 µM | 3.79 µM | 1.81 µM | 3.45 µM | 1.8 µM | 3.25 µM | 1.98 µM | 3.88 µM | 1.81 µM | 3.38 µM | 1.91 µM | 3.37 µM | 2.04 µM | 3.86 µM |
| CN1CCN(c2nc(NCCNc3ccnc4cc(Cl)ccc34)c3ccccc3n2)CC1 | 1.71 µM | 4.26 µM | 1.64 µM | 3.8 µM | 1.79 µM | 3.45 µM | 2 µM | 3.76 µM | 1.7 µM | 6.49 µM | 2.3 µM | 10.1 µM | 1.37 µM | 3.14 µM | 3.64 µM | 15.2 µM | 2.33 µM | 10 µM | 1.46 µM | 3.46 µM |
| COc1ccc(NC(=O)CC(=O)n2nc(-c3ccccc3)c(N=Nc3ccc(C)cc3)c2-c2ccccc2)cc1 | – | > 100 µM | – | 48.3 µM | – | 52.2 µM | – | 70.3 µM | – | 66.3 µM | – | 47.5 µM | – | > 59.6 µM | – | 54 µM | – | 45.6 µM | – | 46.4 µM |
| COC1=CC(=O)c2c(O)c3c(c(O)c2C1=O)CC(C)(O)OC3 (stereo not drawn) | – | > 76.8 µM | – | 7.24 µM | – | 13.9 µM | – | 2.1 µM | – | 6.48 µM | – | 10.5 µM | – | > 41 µM | – | 8.42 µM | – | 27.3 µM | – | 16.5 µM |
| COc1cc(Oc2cnc3cc(N)cc(N)c3n2)cc(OC)c1OC | 21.9 µM | 45 µM | > 100 µM | > 100 µM | 74.4 µM | > 100 µM | 59.9 µM | > 100 µM | 52 µM | > 100 µM | > 100 µM | > 100 µM | 29.4 µM | 95.8 µM | 31.4 µM | > 100 µM | 33 µM | > 100 µM | 25.4 µM | 89.8 µM |
